Test results taken from patent publication US8685658B2, “Compositions and methods for the treatment of diseases associated with aberrant cilia assembly and regulation” (Fox Chase Cancer Center, priority 2006, dated 2014).

Key:
FGFR1 = FGFR1 (Homo sapiens, UniProt P11362); details: cited from earlier work
AurA-HDAC6 = target: T1, AurA-HDAC6 (Homo sapiens, UniProt O14965); assay: AurA-HDAC6 coimmunoprecipitation from hTERT-RPE1 cells; assay type: cell-based; details: pre-treatment of cells with inhibitor
T1 construct: endogenous in cells; host or cells: hTERT-RPE1
T1 sequence (O14965 1-403): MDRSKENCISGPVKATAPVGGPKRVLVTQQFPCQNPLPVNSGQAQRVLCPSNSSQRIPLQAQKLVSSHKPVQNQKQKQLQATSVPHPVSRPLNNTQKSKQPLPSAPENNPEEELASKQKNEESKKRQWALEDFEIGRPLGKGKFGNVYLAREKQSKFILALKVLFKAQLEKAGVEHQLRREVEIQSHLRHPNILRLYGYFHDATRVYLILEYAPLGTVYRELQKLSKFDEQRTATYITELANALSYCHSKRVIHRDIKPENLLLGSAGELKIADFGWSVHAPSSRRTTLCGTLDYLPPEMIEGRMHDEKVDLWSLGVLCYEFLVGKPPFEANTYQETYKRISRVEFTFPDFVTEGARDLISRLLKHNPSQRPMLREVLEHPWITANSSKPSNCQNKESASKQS
T1 sequence (Q9UBN7 1-1215 partner): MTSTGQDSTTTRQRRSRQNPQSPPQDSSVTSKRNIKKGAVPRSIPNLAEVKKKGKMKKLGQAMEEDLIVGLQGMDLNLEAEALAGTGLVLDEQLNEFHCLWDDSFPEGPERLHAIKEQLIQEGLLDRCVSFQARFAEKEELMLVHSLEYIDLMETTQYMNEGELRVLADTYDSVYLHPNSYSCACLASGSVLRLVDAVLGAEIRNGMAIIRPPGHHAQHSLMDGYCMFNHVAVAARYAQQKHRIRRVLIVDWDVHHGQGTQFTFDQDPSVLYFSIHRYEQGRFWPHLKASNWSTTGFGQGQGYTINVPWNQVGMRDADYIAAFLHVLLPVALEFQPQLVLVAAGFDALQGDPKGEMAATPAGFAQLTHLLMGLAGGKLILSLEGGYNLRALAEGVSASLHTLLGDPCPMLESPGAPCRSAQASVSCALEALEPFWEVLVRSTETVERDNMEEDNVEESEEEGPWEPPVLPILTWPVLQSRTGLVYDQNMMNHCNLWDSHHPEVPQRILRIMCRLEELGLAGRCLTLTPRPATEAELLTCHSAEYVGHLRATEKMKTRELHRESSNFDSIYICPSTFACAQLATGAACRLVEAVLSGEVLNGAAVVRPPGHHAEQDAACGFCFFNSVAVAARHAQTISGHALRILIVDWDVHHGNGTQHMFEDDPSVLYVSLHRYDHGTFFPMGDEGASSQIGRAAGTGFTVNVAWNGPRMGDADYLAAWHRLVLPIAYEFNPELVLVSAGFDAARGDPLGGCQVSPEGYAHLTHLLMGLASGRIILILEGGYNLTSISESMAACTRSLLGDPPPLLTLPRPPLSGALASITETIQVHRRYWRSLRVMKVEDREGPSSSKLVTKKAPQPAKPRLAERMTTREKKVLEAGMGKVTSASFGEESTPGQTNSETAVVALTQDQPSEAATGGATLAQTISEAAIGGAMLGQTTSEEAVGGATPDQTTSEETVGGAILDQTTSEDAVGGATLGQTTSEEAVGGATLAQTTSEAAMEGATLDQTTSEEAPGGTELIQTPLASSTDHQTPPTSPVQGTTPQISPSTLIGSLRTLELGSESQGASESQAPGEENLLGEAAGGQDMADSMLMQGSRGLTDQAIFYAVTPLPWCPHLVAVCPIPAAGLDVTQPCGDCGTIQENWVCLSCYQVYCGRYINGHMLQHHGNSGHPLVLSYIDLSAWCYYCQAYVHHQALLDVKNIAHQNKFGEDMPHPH
Method: For microinjection, recombinant glutathione-S-transferase (GST), GST fused AurA mutants T288A and D274N) produced from BL21 (DE3) bacteria were purified using the MicroSpin GST Purification Module (Amersham Biotech.). Purified recombinant AurA was purchased from Upstate; this AurA was pre-activated based on incubation with ATP. […] To prepare lysates for Western blotting and IP, mammalian cells were disrupted by M-PER lysis buffer (Pierce) supplemented with EDTA-free protease inhibitor cocktail (Roche). Lysates used for IP were incubated overnight with antibody at 4° C., subsequently incubated for 2 hours with protein A/G-sepharose (Pierce), washed, and resolved by SDS-PAGE. Western blotting was performed using standard procedures and proteins visualized using the West-Pico system (Pierce). Antibodies used included mouse monoclonal antibody (mAb) anti-HEF1 2G9 (Pugacheva and Golemis, 2005), anti-α-tubulin mAb (Sigma), anti-AurA (BD Bioscience) for Western blotting, anti-AurA rabbit polyclonal (Cell Signaling) for IP, anti-Phospho-AurA/T288 (BioLegend), anti-Phospho-AurA/T288 (Cell Signaling), anti-HDAC6 rabbit polyclonal (Upstate; 1:5000), anti-HDAC2 rabbit polyclonal (Invitrogen) and mAb anti-β-actin (AC15, Sigma), anti-IFT88 and anti-IFT20. Secondary horseradish peroxidase (HRP)-conjugated antibodies were from Amersham Biotech.

AurA = target: T2, AurA (Homo sapiens, UniProt O14965); assay: AurA activation and HEF1 phosphorylation in serum-stimulated hTERT-RPE1 cells (Western blot); assay type: cell-based; details: vs DMSO, 2 and 24 hour time points after serum
T2 construct: endogenous AurA immunoprecipitated from mammalian cells; endogenous in cells; host or cells: hTERT-RPE1
T2 sequence (O14965 1-403): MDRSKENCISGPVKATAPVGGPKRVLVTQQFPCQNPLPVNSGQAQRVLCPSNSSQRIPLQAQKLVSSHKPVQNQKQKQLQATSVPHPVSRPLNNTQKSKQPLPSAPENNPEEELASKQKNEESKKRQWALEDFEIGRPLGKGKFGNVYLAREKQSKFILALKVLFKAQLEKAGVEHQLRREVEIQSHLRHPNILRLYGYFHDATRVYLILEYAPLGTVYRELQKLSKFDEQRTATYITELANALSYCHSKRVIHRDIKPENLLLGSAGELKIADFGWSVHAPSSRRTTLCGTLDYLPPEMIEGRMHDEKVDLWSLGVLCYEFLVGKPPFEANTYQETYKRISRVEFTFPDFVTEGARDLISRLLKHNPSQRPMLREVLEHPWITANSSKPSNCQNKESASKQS
Method: For microinjection, recombinant glutathione-S-transferase (GST), GST fused AurA mutants T288A and D274N) produced from BL21 (DE3) bacteria were purified using the MicroSpin GST Purification Module (Amersham Biotech.). Purified recombinant AurA was purchased from Upstate; this AurA was pre-activated based on incubation with ATP. […] To prepare lysates for Western blotting and IP, mammalian cells were disrupted by M-PER lysis buffer (Pierce) supplemented with EDTA-free protease inhibitor cocktail (Roche). Lysates used for IP were incubated overnight with antibody at 4° C., subsequently incubated for 2 hours with protein A/G-sepharose (Pierce), washed, and resolved by SDS-PAGE. Western blotting was performed using standard procedures and proteins visualized using the West-Pico system (Pierce). Antibodies used included mouse monoclonal antibody (mAb) anti-HEF1 2G9 (Pugacheva and Golemis, 2005), anti-α-tubulin mAb (Sigma), anti-AurA (BD Bioscience) for Western blotting, anti-AurA rabbit polyclonal (Cell Signaling) for IP, anti-Phospho-AurA/T288 (BioLegend), anti-Phospho-AurA/T288 (Cell Signaling), anti-HDAC6 rabbit polyclonal (Upstate; 1:5000), anti-HDAC2 rabbit polyclonal (Invitrogen) and mAb anti-β-actin (AC15, Sigma), anti-IFT88 and anti-IFT20. Secondary horseradish peroxidase (HRP)-conjugated antibodies were from Amersham Biotech. […]

hTERT-RPE1 cells = assay: serum-induced ciliary disassembly in ciliated hTERT-RPE1 cells; assay type: cell-based
Method: hTERT-RPE1 cells were grown in DMEM with 10% fetal bovine serum (FBS). For analysis of ciliary disassembly, cells were plated at 30% confluence in plates containing glass cover slips, and starved for 48 hours (in Opti-MEM or regular DMEM, without added serum) to induce cilia formation, followed by treatments described hereinbelow. For siRNA treatment, cells were initially plated in DMEM/10% FBS in plates containing cover slips, and 12 hours later siRNA transfection was performed in Opti-MEM with Oligofectamine (Invitrogen) according to manufacturer recommendations, and fixed 48 hours after transfection, following treatments indicated in Results. The remaining cells on plate were lysed, then either directly analyzed by Western blot analysis, or used for immunoprecipitation (IP)-kinase reaction to measure AurA activity.
Cells were fixed with 4% paraformaldehyde (10 min) then methanol (5 min), permeabilized with 1% Triton-X100 in PBS, blocked in 1×PBS, 3% BSA, and incubated with antibodies using standard protocols. Primary antibodies included rabbit polyclonal anti-Aurora A and anti-phospho-AuroraA/T288, (Cell Signaling), mouse mAb anti-HEF1 (14A11), polyclonal anti-γ-tubulin (Sigma), anti-α-tubulin mAb (Sigma), anti-acetylated α-tubulin mAb (clone 6-11B-1, Sigma, and clone K(Ac)40 Biomol), anti-IFT88 and anti-IFT20 (gifts of G. Pazour), mouse anti-glutamylated tubulin (Sigma), and anti-HDAC6 (Upstate). Secondary antibodies labeled with Alexa-488, Alexa-568, and Alexa-633, and TOTO-3 dye to stain DNA, were from Molecular Probes/Invitrogen. DNA was co-stained in some experiments by propidium iodine (Sigma) or Draq5 (Alexis), Confocal microscopy was performed using a Radiance 2000 laser scanning confocal microscope ((Carl Zeiss, Thornwood, N.Y.) coupled to a Nikon Eclipse E800 upright microscope (Nikon). Statistical analysis of data by one-way ANOVA was performed using GraphPad Instat 3.0 (San Diego, Calif.).

AurB = AurB (Homo sapiens, UniProt Q96GD4); details: cited from earlier work
AurB, sequence (Q96GD4 whole entry): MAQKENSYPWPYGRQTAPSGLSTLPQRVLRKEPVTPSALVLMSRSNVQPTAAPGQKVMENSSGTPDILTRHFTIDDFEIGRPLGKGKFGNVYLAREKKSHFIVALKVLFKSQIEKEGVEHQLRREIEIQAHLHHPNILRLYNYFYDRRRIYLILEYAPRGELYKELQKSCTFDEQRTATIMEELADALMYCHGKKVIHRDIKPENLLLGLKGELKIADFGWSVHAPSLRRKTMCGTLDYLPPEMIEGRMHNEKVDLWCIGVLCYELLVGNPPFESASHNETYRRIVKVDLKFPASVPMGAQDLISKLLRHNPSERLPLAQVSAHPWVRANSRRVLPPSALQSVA

FGFR1, sequence (P11362 22-822, species assumed): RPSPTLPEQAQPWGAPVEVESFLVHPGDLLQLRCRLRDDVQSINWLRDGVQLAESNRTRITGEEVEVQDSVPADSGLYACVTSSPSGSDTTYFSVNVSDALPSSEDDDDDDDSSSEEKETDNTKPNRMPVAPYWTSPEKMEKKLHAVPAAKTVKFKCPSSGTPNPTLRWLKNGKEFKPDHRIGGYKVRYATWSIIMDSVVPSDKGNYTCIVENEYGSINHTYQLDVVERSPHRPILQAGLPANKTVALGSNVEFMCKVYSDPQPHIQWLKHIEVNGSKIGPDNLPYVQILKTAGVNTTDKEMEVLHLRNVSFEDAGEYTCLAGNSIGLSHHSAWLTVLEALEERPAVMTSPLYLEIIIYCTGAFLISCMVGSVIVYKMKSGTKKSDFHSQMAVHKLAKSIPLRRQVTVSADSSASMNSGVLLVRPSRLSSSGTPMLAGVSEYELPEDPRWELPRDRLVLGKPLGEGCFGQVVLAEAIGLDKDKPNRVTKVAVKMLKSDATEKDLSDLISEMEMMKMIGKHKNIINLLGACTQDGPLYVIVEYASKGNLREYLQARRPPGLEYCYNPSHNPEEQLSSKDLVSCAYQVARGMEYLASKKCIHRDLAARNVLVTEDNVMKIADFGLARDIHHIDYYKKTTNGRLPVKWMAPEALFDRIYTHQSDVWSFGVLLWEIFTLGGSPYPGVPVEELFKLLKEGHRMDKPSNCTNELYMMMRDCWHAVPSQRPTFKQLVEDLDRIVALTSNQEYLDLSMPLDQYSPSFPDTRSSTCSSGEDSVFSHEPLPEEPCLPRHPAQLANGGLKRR

For CCc1cccc(CC)c1NC(=O)N1Cc2n[nH]c(NC(=O)c3ccc(N4CCN(C)CC4)cc3)c2C1 [PHA-680632], the IC50 (FGFR1) is listed as 390 nM, the AurA-HDAC6 coimmunoprecipitation (AurA-HDAC6) is listed as “not eliminated” and the “HEF1 phosphorylation (115 kDa form)” value (AurA) is listed as “blocks”. The “appearance of T288-phospho-AurA” value (AurA) was “blocks appearance”, the “second wave of ciliary disassembly, at the time of mitosis” value (hTERT-RPE1 cells; 500 nM, 18-24 hours after serum) was “completely eliminated” and the “disassembly of cilia after serum stimulation” value (hTERT-RPE1 cells; cells pre-treated for 3 hours with 500 nM, tracked 24 hours post serum) was “strongly reduced”. The IC50 (AurB) was 185 nM.
